The structures appear in SMILES notation.

The values below come from patent US11534443B2, “Quinazoline compounds, preparation method, use, and pharmaceutical composition thereof” (INSTITUTE OF MATERIA MEDICA, CHINESE ACADEMY OF MEDICAL …, priority 2016, dated 2022).

Test [1] relates to human lung cancer NCI-H460 subcutaneous xenografts. As to the kind of experiment: Xenograft efficacy in nude mice, NCI-H460. In kind it is in vivo. The settings on record: for Growth inhibition: NCI-H460 xenograft, 16 days of dosing. The procedure: Human lung cancer NCI-H460 cells were collected under aseptic conditions, and the cell density was adjusted to 1×10^6 cells/mL with sterile saline, 0.2 mL of which was implanted into the back of the nude mice. When the tumor grew to a diameter of about 1 cm, it was removed under […] condition and cut into pieces of 1 mm×1 mm which was implanted into the back of the nude mice. When the tumor grew to 100-300 mm^3 after 6 days, the animals were randomly divided into groups and administration was started (marked as Day 1). The test compound was administered orally every day. Body weight was measured twice a week and the length and width of the tumor were measured with a vernier caliper. After 16 days of dosing, the nude mice were sacrificed by cervical dislocation and the tumor issues were exfoliated, weighed and photographed. Finally, the tumor inhibitory rate was calculated. The antitumor efficacy was evaluated by the tumor inhibitory rate. The results were shown in Table 3, Table 4, FIG. 1 and FIG. 2.
The tumor volume was calculated as follows: Tumor volume=(a×b^2)/2, where a and b represented the length and width of the tumor.
The percentage of tumor growth inhibition was calculated as follows: Tumor growth inhibition (%)=(1−T/C)×100, where T was the final volume of the tumor in the test compound group and C was the final volume of the tumor in the solvent control group.

The test system of test [2] is human lung cancer cell NCI-H460. As to the kind of experiment: Tumor cell viability by MTT assay. As to conditions: Homo sapiens, NCI-H460, 96 h. In kind it is cell-based. In outline:
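NCI-H460 cells exposed to six to nine compound concentrations (DMSO below 0.2%, triplicate wells) for 96 hours at 37° C, 5% CO2. MTT added for 4 hours, formazan dissolved in DMSO and OD read at 570 nm against DMSO-treated controls.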
Background: Formazan colour is commonly taken as a measure of viable cells.

In the next test the target is PI3Kα (Homo sapiens (Human), UniProt P42336). As to the kind of experiment: Biochemical evaluation of activity of PI3Kα (Kinase-Glo luminescence kinase assay). The settings on record: 25 μM ATP, 50 μM PIP2, 1 h at room temperature. A digest of the protocol:
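Inhibition of PI3Kα was measured in vitro with a luciferase-based Kinase-Glo™ luminescence readout in white 384-well plates at room temperature. Compound diluted 25-fold in buffer (50 mM Hepes pH 7.5, 3 mM MgCl2, 100 mM NaCl, 1 mM EGTA, 0.03% CHAPS, 2 mM DTT) was mixed with enzyme, then PIP2/ATP substrate was added. Percent inhibition used enzyme-free and DMSO controls; IC50 was fitted with XLfit.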

Chain of PI3Kα (P42336 whole entry): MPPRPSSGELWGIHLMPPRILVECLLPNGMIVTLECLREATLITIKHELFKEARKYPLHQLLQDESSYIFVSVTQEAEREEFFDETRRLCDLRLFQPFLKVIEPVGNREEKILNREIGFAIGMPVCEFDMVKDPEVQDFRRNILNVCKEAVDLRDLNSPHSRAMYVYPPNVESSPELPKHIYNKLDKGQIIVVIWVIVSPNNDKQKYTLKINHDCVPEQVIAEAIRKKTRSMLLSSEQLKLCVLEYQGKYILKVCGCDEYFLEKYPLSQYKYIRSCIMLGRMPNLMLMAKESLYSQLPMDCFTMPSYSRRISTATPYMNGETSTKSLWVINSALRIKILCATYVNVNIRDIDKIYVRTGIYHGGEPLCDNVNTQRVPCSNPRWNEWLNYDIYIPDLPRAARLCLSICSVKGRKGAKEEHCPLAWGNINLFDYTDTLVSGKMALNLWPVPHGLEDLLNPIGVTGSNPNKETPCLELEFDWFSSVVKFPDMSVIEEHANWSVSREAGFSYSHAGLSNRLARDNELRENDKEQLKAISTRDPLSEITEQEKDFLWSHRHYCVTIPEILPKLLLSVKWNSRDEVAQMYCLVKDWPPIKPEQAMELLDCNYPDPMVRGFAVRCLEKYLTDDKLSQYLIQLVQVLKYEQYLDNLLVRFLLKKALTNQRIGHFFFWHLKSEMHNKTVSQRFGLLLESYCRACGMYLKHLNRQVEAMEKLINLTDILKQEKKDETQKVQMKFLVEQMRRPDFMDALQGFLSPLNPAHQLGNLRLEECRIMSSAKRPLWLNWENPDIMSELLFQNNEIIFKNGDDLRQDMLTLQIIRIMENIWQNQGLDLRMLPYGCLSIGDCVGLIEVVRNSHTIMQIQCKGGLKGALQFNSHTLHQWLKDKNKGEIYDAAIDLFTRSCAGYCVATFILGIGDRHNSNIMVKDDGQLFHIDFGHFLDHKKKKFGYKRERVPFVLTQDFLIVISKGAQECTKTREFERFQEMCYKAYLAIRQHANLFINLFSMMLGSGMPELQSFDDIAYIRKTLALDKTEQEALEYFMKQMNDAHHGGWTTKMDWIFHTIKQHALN
Chain of PI3Kα (P27986 whole entry partner): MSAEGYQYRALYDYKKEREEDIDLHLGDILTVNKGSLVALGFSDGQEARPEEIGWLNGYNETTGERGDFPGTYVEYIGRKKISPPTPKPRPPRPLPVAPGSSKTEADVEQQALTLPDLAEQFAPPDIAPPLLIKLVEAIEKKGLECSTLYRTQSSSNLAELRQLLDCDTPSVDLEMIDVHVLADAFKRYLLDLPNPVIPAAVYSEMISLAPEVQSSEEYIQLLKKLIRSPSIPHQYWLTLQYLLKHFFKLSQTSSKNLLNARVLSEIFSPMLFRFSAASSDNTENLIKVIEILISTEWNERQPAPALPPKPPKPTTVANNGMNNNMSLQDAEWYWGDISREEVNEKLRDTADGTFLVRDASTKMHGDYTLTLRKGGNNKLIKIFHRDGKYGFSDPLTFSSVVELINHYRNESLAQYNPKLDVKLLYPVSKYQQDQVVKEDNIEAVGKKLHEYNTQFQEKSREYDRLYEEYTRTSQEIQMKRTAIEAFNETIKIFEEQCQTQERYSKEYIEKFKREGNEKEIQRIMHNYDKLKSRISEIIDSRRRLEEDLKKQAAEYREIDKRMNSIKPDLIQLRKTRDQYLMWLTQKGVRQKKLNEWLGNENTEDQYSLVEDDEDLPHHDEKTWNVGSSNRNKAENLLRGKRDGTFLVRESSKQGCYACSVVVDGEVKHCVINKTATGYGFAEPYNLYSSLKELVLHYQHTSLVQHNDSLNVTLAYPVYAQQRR

A word on the IC50: it is the midpoint of a concentration-inhibition curve. Low values mean inhibition by little substance, high ones a need for much substance. Take `COc1ncc(-c2cc(O[C@@H]3CCOC3)c3nc(N)nc(C)c3c2)cc1NS(=O)(=O)c1ccc(F)cc1F` [Example 9, (R)—N-(5-(2-amino-4-methyl-8-((tetrahydrofuran-3-yl)oxy)quinazolin-6-yl)-2-methoxypyridin-3-yl)-2,4-difluorobenzenesulfonamide]: in test [1], the “inhibitory effect against growth of NCI-H460 subcutaneous xenografts (in words)” value is given as “significant inhibitory effects”. Moreover, the Growth inhibition in test [1] (5 mg/kg/day orally) was 39.2%; in test [1] (10 mg/kg/day orally), 56.3%; in test [1] (20 mg/kg/day orally), 77.0%. The 50% inhibitory concentration (IC50) in test [2] was 93 nM; at PI3Kα, 0.86 nM.

Consider `COc1ncc(-c2cc(OC3CCOCC3)c3ncnc(C)c3c2)cc1NS(=O)(=O)c1ccc(F)cc1F` [Example 44, N-(2-methoxy-5-(4-methyl-8-((tetrahydro-2H-pyran-4-yl)oxy)quinazolin-6-yl)pyridin-3-yl)-2,4-difluorobenzenesulfonamide], for which, in test [1], the “inhibitory effect against growth of NCI-H460 subcutaneous xenografts (in words)” value is reported as “significant inhibitory effects”. The same compound showed a Growth inhibition in test [1] (1 mg/kg/day orally) of 60.3%. Also, the IC50 in test [2] amounted to 29 nM; at PI3Kα, 0.65 nM.

Regarding `COc1ncc(-c2cc(OC3CCCC3)c3ncnc(C)c3c2)cc1NS(=O)(=O)c1ccc(F)cc1F` [Example 56, N-(5-(8-(cyclopentyloxy)-4-methylquinazolin-6-yl)-2-methoxypyridin-3-yl)-2,4-difluorobenzenesulfonamide], the values for the IC50 (in test [2]; at PI3Kα) were 73 nM and 0.92 nM, respectively.

`COc1ncc(-c2cc(OC3CCC(F)(F)CC3)c3ncnc(C)c3c2)cc1NS(=O)(=O)c1ccc(F)cc1F` [Example 57, N-(5-(8-((4,4-difluorocyclohexyl)oxy)-4-methylquinazolin-6-yl)-2-methoxypyridin-3-yl)-2,4-difluorobenzenesulfonamide]: the IC50 worked out at 450 nM in test [2] and 1.7 nM on PI3Kα.

For `COc1ncc(-c2cc(OC3CCOC(C)(C)C3)c3ncnc(C)c3c2)cc1NS(=O)(=O)c1ccc(F)cc1F` (stereo not shown) [Example 58, N-(5-(8-((2,2-dimethyltetrahydro-2H-pyran-4-yl)oxy)-4-methylquinazolin-6-yl)-2-methoxypyridin-3-yl)-2,4-difluorobenzenesulfonamide], the IC50 in test [2] was 56 nM; against PI3Kα it was 1 nM.

In the case of `COc1ncc(-c2cc(OCC3(C)COC3)c3ncnc(C)c3c2)cc1NS(=O)(=O)c1ccc(F)cc1F` [Example 59, N-(2-methoxy-5-(4-methyl-8-((3-methyloxetan-3-yl)methoxy)quinazolin-6-yl)pyridin-3-yl)-2,4-difluoro-benzenesulfonamide], the IC50 in test [2] amounted to 17 nM; on PI3Kα it was 0.74 nM.

Turning to `COc1ncc(-c2cc(OCC3CCCO3)c3ncnc(C)c3c2)cc1NS(=O)(=O)c1ccc(F)cc1F` (stereo not shown) [Example 60, N-(2-methoxy-5-(4-methyl-8-((tetrahydrofuran-2-yl)methoxy)quinazolin-6-yl)pyridin-3-yl)-2,4-difluorobenzenesulfonamide], the figures for the IC50 (in test [2]; on PI3Kα) were 240 nM and 1.3 nM, respectively.

On to `COc1ncc(-c2cc(OCC3CCOC3)c3ncnc(C)c3c2)cc1NS(=O)(=O)c1ccc(F)cc1F` (stereo not shown) [Example 61, N-(2-methoxy-5-(4-methyl-8-((tetrahydrofuran-3-yl)methoxy)quinazolin-6-yl)pyridin-3-yl)-2,4-difluorobenzenesulfonamide], for which the IC50 worked out at 45 nM in test [2] and 1 nM on PI3Kα.

For the compound `COc1ncc(-c2cc(OC3CCN(C)CC3)c3ncnc(C)c3c2)cc1NS(=O)(=O)c1ccc(F)cc1F` [Example 62, N-(2-methoxy-5-(4-methyl-8-((1-methylpiperidin-4-yl)oxy)quinazolin-6-yl)pyridin-3-yl)-2,4-difluoro-benzenesulfonamide], the IC50 stood at 260 nM in test [2] and 2.5 nM on PI3Kα.

For the compound `COc1ncc(-c2cc(OCCN3CCCC3)c3ncnc(C)c3c2)cc1NS(=O)(=O)c1ccc(F)cc1F` [Example 63, N-(2-methoxy-5-(4-methyl-8-(2-(pyrrolidin-1-yl)ethoxy)quinazolin-6-yl)pyridin-3-yl)-2,4-difluorobenzenesulfonamide], the values for the IC50 (in test [2]; against PI3Kα) were 2100 nM and 10 nM, respectively.

Consider `COc1ncc(-c2cc(OCCn3cccn3)c3ncnc(C)c3c2)cc1NS(=O)(=O)c1ccc(F)cc1F` [Example 64, N-(5-(8-(2-(1H-pyrazol-1-yl)ethoxy)-4-methylquinazolin-6-yl)-2-methoxypyridin-3-yl)-2,4-difluorobenzenesulfonamide], for which the half-maximal inhibitory concentration (IC50) in test [2] was 390 nM; at PI3Kα it was 1.5 nM.

As to `COc1ncc(-c2cc(OCC3CCN(C)CC3)c3ncnc(C)c3c2)cc1NS(=O)(=O)c1ccc(F)cc1F` [Example 66, N-(2-methoxy-5-(4-methyl-8-((1-methylpiperidin-4-yl)methoxy)quinazolin-6-yl)pyridin-3-yl)-2,4-difluoro-benzenesulfonamide], the IC50 in test [2] turned out to be 230 nM; against PI3Kα, 1.7 nM.

With `COc1ncc(-c2cc(OCCN(C)C)c3ncnc(C)c3c2)cc1NS(=O)(=O)c1ccc(F)cc1F` [Example 67, N-(5-(8-(2-(dimethylamino)ethoxy)-4-methylquinazolin-6-yl)-2-methoxypyridin-3-yl)-2,4-difluorobenzenesulfonamide], the figures for the IC50 (in test [2]; at PI3Kα) were 3500 nM and 6.1 nM, respectively.

Turning to `COc1ncc(-c2cc(OCC3CC3)c3ncnc(C)c3c2)cc1NS(=O)(=O)c1ccc(F)cc1F` [Example 68, N-(5-(8-(cyclopropylmethoxy)-4-methylquinazolin-6-yl)-2-methoxypyridin-3-yl)-2,4-difluorobenzenesulfonamide], the IC50 in test [2] was 340 nM; at PI3Kα, 1.6 nM.

Consider `COc1ncc(-c2cc(OC(C)C)c3ncnc(C)c3c2)cc1NS(=O)(=O)c1ccc(F)cc1F` [Example 69, N-(5-(8-isopropoxy-4-methylquinazolin-6-yl)-2-methoxypyridin-3-yl)-2,4-difluorobenzenesulfonamide], for which the values for the IC50 (in test [2]; on PI3Kα) were 50 nM and 2.2 nM, respectively.

For `COc1ncc(-c2cc(OC3CCC3)c3ncnc(C)c3c2)cc1NS(=O)(=O)c1ccc(F)cc1F` [Example 70, N-(5-(8-cyclobutoxy-4-methylquinazolin-6-yl)-2-methoxypyridin-3-yl)-2,4-difluorobenzenesulfonamide], the results for the IC50 (in test [2]; against PI3Kα) were 22 nM and 0.9 nM, respectively.

For the compound `COc1ncc(-c2cc(OC(F)F)c3ncnc(C)c3c2)cc1NS(=O)(=O)c1ccc(F)cc1F` [Example 71, N-(5-(8-(difluoromethoxy)-4-methylquinazolin-6-yl)-2-methoxypyridin-3-yl)-2,4-difluorobenzenesulfonamide], the values for the IC50 (in test [2]; on PI3Kα) were 1000 nM and 1.9 nM, respectively.

With `COc1ncc(-c2cc(OC)c3ncnc(C)c3c2)cc1NS(=O)(=O)c1ccc(F)cc1F` [Example 72, N-(2-methoxy-5-(8-methoxy-4-methylquinazolin-6-yl)pyridin-3-yl)-2,4-difluorobenzenesulfonamide], the IC50 in test [2] was 500 nM; on PI3Kα, 0.7 nM.

Consider `Cc1ncnc2c(OC3CCOCC3)cc(-c3cnc(Cl)c(NS(=O)(=O)c4ccc(F)cc4)c3)cc12` [Example 73, N-(2-chloro-5-(4-methyl-8-((tetrahydro-2H-pyran-4-yl)oxy)quinazolin-6-yl)pyridin-3-yl)-4-fluorobenzenesulfonamide], for which the IC50 in test [2] was found to be 740 nM; at PI3Kα, 1.3 nM.

With `Cc1ncc(-c2cc(OC3CCOCC3)c3ncnc(C)c3c2)cc1NS(=O)(=O)c1ccc(F)cc1F` [Example 74, N-(2-methyl-5-(4-methyl-8-((tetrahydro-2H-pyran-4-yl)oxy)quinazolin-6-yl)pyridin-3-yl)-2,4-difluorobenzenesulfonamide], the IC50 in test [2] was 870 nM; against PI3Kα it was 1.1 nM.
